Experimental data from patent US6271342A, “Sugar-modified cytostatics” (Bayer Aktiengesellschaft, priority 1995, dated 2001).
Where a name gives a salt, the structure may show the parent alone.

Legend:
[1] = system: SW 480; assay: Growth inhibition test (MTT) for cytotoxic properties; type: cell-based, human; details: Table 1a, glycoconjugates of batracyline
Description: (§1) Growth Inhibition Test for Determination of the Cytotoxic Properties of Glycoconjugates of Batracyline and of Quinolone-a
(§2) The human colon cell lines SW 480 and HT 29 (ATCC no. CCL 228 and HBT-38) and the mouse melanoma cell line B 16 F 10 were cultured in Roux dishes in RPMI 1640 medium with addition of 10% FCS. The cultures were then trypsinized and taken up in RPMI plus 10% FCS to a cell count of 50,000 cells/ml. 100 μl of cell suspension/well were introduced into a 96 microwell plate and incubated for 1 day at 37° C. in a CO2 incubating cabinet. A further 100 μl of RPMI medium and 1 μl of dimethyl sulphoxide with the test substances were then added. The growth was checked after day 3 and day 6. 40 μl of MTT solution (3-(4,5-dimethylthiazol-2-yl)-2,5-diphenyltetrazoline bromide) with an initial concentration of 5 mg/ml of H2 O were added to each microwave. The plate was incubated for 5 hours in a CO2 incubating cabinet at 37° C. The medium was then sucked off and 100 μl of i-propanol/well were added. After shaking for 30 minutes with 100 μl of H2 O, the extinction was measured at 540 nm with a Titertek Multiskan MCC/340 (Flow).
(§3) The cytotoxic action of the glycoconjugates of batracyline described is shown in Table 1a as the IC50 value in each case for the SW 480 and HT 29 cell lines.

[2] = system: HT 29; assay: as above; type: cell-based, human; details: Table 1a, glycoconjugates of batracyline
Description: as §1, §2, §3

Row | Molecule | IC50 [1] [µM] | IC50 [2] [µM]
1 | N-{N^ε -[O-(3-O-Methoxycarbonylmethyl-α-D-mannopyranosyl)-4-hydroxy-phenyla mino-thiocarbonyl]-lysyl-D-alanyl}-batracyline, trifluoroacetate [Example 3.28] | 60 | –
2 | N-{N^α -[O-(3-O-Methyl-β-L-fucosyl)-4-hydroxy-phenylamino-thiocarbonyl]-lysy l-D-alanyl}-batracyline [Example 4.3] | 20 | 20
3 | N-{N^α -[O-(3-O-Methoxycarbonylmethyl-β-D-galactopyranosyl)-4-hydroxy-phenyl amino-thiocarbonyl]-N^ε -[O-(3-O-carboxymethyl-β-D-galactopyranosyl)-4-hydroxy-phenylamino-th iocarbonyl]-lysyl-D-alanyl}-batracyline, sodium salt [Example 5.19] | 35 | 25
4 | N-{N^ε -[O-(3-O-Carboxymethyl-β-D-galactopyranosyl)-4-hydroxy-phenylamino-th iocarbonyl]-lysyl-D-alanyl}-batracyline, trifluoroacetate [Example 3.18] | 15 | –
5 | CNC(=O)COC1C(O)C(CO)OC(Oc2ccc(NC(=S)NCCCCC(N)C(=O)NC(C)C(=O)Nc3ccc4nc5n(c(=O)c4c3)Cc3ccccc3-5)cc2)C1O [Example 3.20, N-{N^ε -[O-(3-O-(N-Methyl-carbamoylmethyl)-β-D-galactopyranosyl)-4-hydroxy-phenylamino-thiocarbonyl]-lysyl-D-alanyl}-batracyline, trifluoroacetate] | 100 | –
6 | N-{N^ε -[O-(3-O-Carbamoylmethyl-β-L-fucosyl)-4-hydroxy-phenylamino-thiocarbo nyl]-lysyl-D-alanyl}-batracyline, sodium salt [Example 3.10] | 100 | 125
7 | N-{N^α -[-(3-O-Carboxymethyl-β-D-galactopyranosyl)-4-hydroxy-phenylaminothio carbonyl]-N^ε -[O-(3,4-di-O-methyl-β-D-galactopyranosyl)-4-hydroxy-phenylamino-thio carbonyl]-lysyl-D-alanyl}-batracyline, sodium salt [Example 5.13] | 20 | 40
8 | N-{N^α -[O-(3-O-Methoxycarbonylmethyl-[-D-galactopyranosyl)-4-hydroxy-phenylamino -thiocarbonyl]-lysyl-D-alanyl}-batracyline [Example 4.8] | 50 | 40
9 | CO[C@H]1[C@@H](O)[C@H](O)[C@@H](Oc2ccc(Nc3nc(NCCO)nc(NCCCC[C@H](N)C(=O)N[C@@H](C)C(=O)Nc4ccc5c(c4)CN4C(=O)c6ccccc6C4=N5)n3)cc2)O[C@H]1C [Example 8.12, N-{N^ε -[4-Hydroxyethylamino-2-[O-(4-O-methyl-β-L-fucosyl)-4-hydroxy-phenylamino]-triazin-6-yl]-lysyl-alanyl}-batracyline, trifluoroacetate] | 30 | –
10 | N-{N^ε -[O-(3-O-Methyl-β-D-galactopyranosyl)-4-hydroxy-phenylamino-thiocarbo nyl]-lysyl-D-alanyl}-batracyline, trifluoroacetate [Example 3.14] | 40 | –
11 | N-{N^ε -[O-(3-O-(N-Propyl-carbamoylmethyl)-β-D-galactopyranosyl)-4-hydroxy-p henylamino-thiocarbonyl]-lysyl-D-alanyl}-batracyline, trifluoroacetate [Example 3.21] | 90 | –
12 | N-{N-[O-(β-L-Fucosyl)-4-hydroxy-phenylamino-thiocarbonyl]-glutamyl-D-a lanyl}-batracyline [Example 7.5] | 80 | –
13 | N-{N^ε -[-(3-O-Carbamoylmethyl-β-D-galactopyranosyl)-4-hydroxy-phenylamino-t hiocarbonyl]-lysyl-D-alanyl}-batracyline, trifluoroacetate [Example 3.19] | 75 | –
14 | N-{N^ε -[O-(3-O-Carbamoylmethyl-α-D-mannopyranosyl)-4-hydroxy-phenylamino-t hiocarbonyl]-lysyl-D-alanyl}-batracyline, trifluoroacetate [Example 3.30] | > 250 | –
15 | N-{N^α,N^ε -Bis-[O-(3-O-carboxymethyl-β-D-galactopyranosyl)-4-hydroxy-phenylamin o-thiocarbonyl]-lysyl-seryl}-batracyline, di-sodium salt [Example 6.34] | 50 | –
16 | N-{N^ε [O-(3-O-Methyl-α-D-mannopyranosyl)-4-hydroxy-phenylamino-thiocarbony l]-lysyl-D-alanyl}-batracyline, trifluoroacetate [Example 3.26] | 50 | –

Row | Molecule | IC50 [1] [µM] | IC50 [2] [µM]
17 | COC1C(Oc2ccc(NC(=S)NCCCCC(N)C(=O)NC(C)C(=O)Nc3ccc4nc5n(c(=O)c4c3)Cc3ccccc3-5)cc2)OC(CO)C(O)C1OC [Example 3.27, N-{N^ε -[O-(2,3-Di-O-methyl-α-D-mannopyranosyl)-4-hydroxy-phenylamino-thiocarbonyl]-lysyl-D-alanyl}-batracyline, trifluoroacetate] | 110 | –
18 | N-{N^α,N^ε -Bis-[O-(3-O-methyl-β-L-fucosyl)-4-hydroxy-phenylamino-thiocarbonyl]- lysyl-diaminopropionyl}-batracyline [Example 6.20] | 80 | –
19 | N-{N^ε -[4-Hydroxyethylamino-2-[O-(2-O-methyl-β-L-fucosyl)-4-hydroxy-phenyla mino]-triazin-6-yl]-lysyl-alanyl}-batracyline, trifluoroacetate [Example 8.11] | 45 | –
20 | N-{N^α,N^ε -Bis-[O-(3,4-O-dideoxy-β-D-galactopyranosyl)-4-hydroxy-phenylamino-th iocarbonyl]-lysyl-D-alanyl}-batracyline [Example 6.83] | 90 | –
21 | CC(NC(=O)C(CCCCNC(=S)Nc1ccc(OC2OC(CO)C(O)C(OCC(N)=O)C2O)cc1)NC(=S)Nc1ccc(OC2OC(CO)C(O)C(OCC(N)=O)C2O)cc1)C(=O)Nc1ccc2nc3n(c(=O)c2c1)Cc1ccccc1-3 [Example 6.82, N-{N^α,N^ε -Bis-[O-(3-O-carbamoylmethyl-β-D-galactopyranosyl)-4-hydroxy-phenylamino-thiocarbonyl]-lysyl-D-alanyl}-batracyline] | 125 | –
22 | CO[C@H]1[C@@H](O)[C@H](O)[C@@H](Oc2ccc(NC(=S)NCCCC[C@H](N)C(=O)N[C@H](C)C(=O)Nc3ccc4c(c3)Cn3c-4nc4ccccc4c3=O)cc2)O[C@H]1C [Example 3.11, N-{N^ε -[O-(4-O-Methyl-β-L-fucosyl)-4-hydroxy-phenylamino-thiocarbonyl]-lysyl-D-alanyl}-batracyline, acetate] | 85 | –
23 | N-{N^α -[4-Hydroxyphenylamino-thiocarbonyl]-N^ε -[O-(4-O-methyl-β-L-fucosyl)-4-hydroxyphenylamino-thiocarbonyl]-lysyl -D-alanyl}-batracyline [Example 5.6] | > 250 | –
24 | CO[C@H]1[C@H](O)[C@@H](Oc2ccc(Nc3nc(NCCO)nc(NCCCC[C@H](N)C(=O)N[C@H](C)C(=O)Nc4ccc5c(=O)n6c(nc5c4)-c4ccccc4C6)n3)cc2)O[C@@H](C)[C@H]1O [Example 8.10, N-{N^ε -[4-Hydroxyethylamino-2-[O-(3-O-methyl-β-L-fucosyl)-4-hydroxy-phenylamino]-triazin-6-yl]-lysyl-D-alanyl}-batracyline, trifluoroacetate] | 70 | –
25 | N-{N^ε -[O-(3-O-Carboxymethyl-α-D-mannopyranosyl)-4-hydroxy-phenylamino-thi ocarbonyl]-lysyl-D-alanyl}-batracyline, trifluoroacetate [Example 3.29] | 110 | –
26 | N-{N^ε-[O-( 3,4-Dideoxy-β-D-galactopyranosyl)-4-hydroxy-phenylamino-thiocarbonyl] -lysyl-D-alanyl}-batracyline, trifluoroacetate [Example 3.23] | 50 | –
27 | N-{N^α,N^ε -Bis-[O-(3,4-di-O-methyl-β-D-galactopyranosyl)-4-hydroxy-phenylamino- thiocarbonyl]-lysyl-alanyl}-batracyline [Example 6.85] | 22 | –
28 | N-{N^α,N^ε -Bis-[O-(3-O-carbamoylmethyl-β-D-galactopyranosyl)-4-hydroxy-phenylam ino-thiocarbonyl]-lysyl-seryl}-batracyline [Example 6.35] | 20 | –
29 | N-{N^α,N^ε -Bis-[O-(3-O-carboxymethyl-β-L-fucosyl)-4-hydroxy-phenylamino-thiocar bonyl]-lysyl-diaminopropionyl}-batracyline, di-sodium salt [Example 6.21] | 150 | –
30 | C[C@@H]1O[C@H](Oc2ccc(NC(=S)NCCCC[C@H](N)C(=O)N[C@H](C)C(=O)Nc3ccc4c(c3)CN3C(=O)c5ccccc5C3=N4)cc2)[C@@H](O)C[C@@H]1O [Example 3.7, N-{N^ε -[O-(3-Deoxy-β-L-fucosyl)-4-hydroxy-phenylamino-thiocarbonyl]-lysyl-D -alanyl}-batracyline, trifluoroacetate] | 55 | –
31 | CC(=O)OCC1OC(Oc2ccc(NC(=S)NCCCCC(N)C(=O)NC(C)C(=O)Nc3ccc4nc5n(c(=O)c4c3)Cc3ccccc3-5)cc2)C(O)C(O)C1O [Example 3.24, N-{N^ε -[O-(6-O-Acetyl-β-D-galactopyranosyl)-4-hydroxy-phenylamino-thiocarbonyl]-lysyl-D-alanyl}-batracyline, trifluoroacetate] | 95 | –
